Calls of active or inactive are those of the source. No cut-off for these calls is given here.
Experiments:
MGC-803 = assay: Antiproliferative activity against human MGC803 cells after 72 hrs by MTT assay; format: functional, cell-based; conditions: MGC-803, 72 h
TE-1 = assay: Antiproliferative activity against human TE1 cells after 72 hrs by MTT assay; format: functional, cell-based; conditions: TE-1, 72 h
PC-3 = assay: Antiproliferative activity against human PC3 cells after 72 hrs by MTT assay; format: functional, cell-based; conditions: PC-3, 72 h
A549 [1] = assay: Antiproliferative activity against human A549 cells after 72 hrs by MTT assay; format: functional, cell-based; conditions: A549, 72 h
GES1 = assay: Antiproliferative activity against human GES-1 cells after 72 hrs by MTT assay; format: cell-based; conditions: GES1, 72 h
A549 [2] = assay: Downregulation of N-cadherin expression in human A549 cells up to 2 uM after 72 hrs by Western blot analysis; format: functional, cell-based
A549 [3] = assay: Antimigratory activity in human A549 cells after 72 hrs by Hoechst 33258 staining based transwell assay; format: functional, cell-based
A549 [4] = assay: Induction of apoptosis in human A549 cells assessed as induction of apoptotic bodies at 2 uM after 72 hrs by Hoechst 33258 staining based fluorescence microscopic method; format: functional, cell-based
A549 [5] = assay: Induction of apoptosis in human A549 cells assessed as reduction in Bcl-2 level up to 2 uM after 72 hrs by Western blot analysis; format: functional, cell-based
A549 [6] = assay: Induction of apoptosis in human A549 cells assessed as increase in Bax level up to 2 uM after 72 hrs by Western blot analysis; format: functional, cell-based
A549 [7] = assay: Induction of apoptosis in human A549 cells assessed as chromatin shrinkage at 2 uM after 72 hrs by Hoechst 33258 staining based fluorescence microscopic method; format: functional, cell-based
A549 [8] = assay: Induction of apoptosis in human A549 cells after 72 hrs by Annexin-V-FITC/propidium iodide staining based flow cytometric analysis; format: functional, cell-based
[9] = Selectivity index, ratio of IC50 for human GES-1 cells to IC50 for human A549 cells; format: toxicity; conditions: GES-1 cells versus A549 cells, read-out: Ratio IC50
A549 [10] = assay: Antimigratory activity in human A549 cells after 72 hrs by inverted microscopic based wound healing assay; format: functional, cell-based
A549 [11] = assay: Up regulation of E-cadherin expression in human A549 cells up to 2 uM after 72 hrs by Western blot analysis; format: functional, cell-based
A549 [12] = assay: Induction of apoptosis in human A549 cells assessed as cell rounding at 2 uM after 72 hrs by Hoechst 33258 staining based fluorescence microscopic method; format: functional
A549 [13] = assay: Anticlonogenic activity against human A549 cells after 10 days by crystal violet staining based assay; format: functional, cell-based
A549 [14] = assay: Anticlonogenic activity against human A549 cells at 1 uM after 10 days by crystal violet staining based assay relative to control; format: functional
A549 [15] = assay: Antiinvasive activity in human A549 cells after 72 hrs by Hoechst 33258 staining based matrigel assay; format: functional, cell-based
A549 [16] = assay: Downregulation of vimentin expression in human A549 cells up to 2 uM after 72 hrs by Western blot analysis; format: functional, cell-based

## CCCSc1nc(Cl)c2c(n1)N(CCOC)C(C(=O)N1CCN(C)CC1)N2 (configuration not stated)
MGC-803
  IC50: > 64 µM
TE-1
  IC50: > 64 µM
PC-3
  IC50: 62.7 µM
A549 [1]
  IC50: 61.8 µM

## CCCSc1nc(Cl)c2c(n1)N(Cc1ccccc1)C(C(=O)N1CCN(C(=O)OC(C)(C)C)CC1)N2 (configuration not stated)
MGC-803
  IC50: 32 µM
TE-1
  IC50: 31.2 µM
PC-3
  IC50: 47.1 µM
A549 [1]
  IC50: 29 µM

## CCCSc1nc(Cl)c2c(n1)N(Cc1ccccc1)C(C(=O)N1CCSCC1)N2 (configuration not stated)
MGC-803
  IC50: 31.3 µM
TE-1
  IC50: 47.8 µM
PC-3
  IC50: 47.9 µM
A549 [1]
  IC50: > 64 µM

## CCCSc1nc(Cl)c2c(n1)N(Cc1ccccc1)C(C(=O)NCCc1c[nH]c3ccccc13)N2 (configuration not stated)
MGC-803
  IC50: 27 µM
TE-1
  IC50: 30 µM
PC-3
  IC50: > 64 µM
A549 [1]
  IC50: 48.8 µM

## O=c1[nH]cc(F)c(=O)[nH]1 [FLUOROURACIL]
MGC-803
  IC50: 8.66 µM
TE-1
  IC50: 16.5 µM
PC-3
  IC50: 12.3 µM
A549 [1]
  IC50: 13.2 µM
GES1
  IC50: 12.5 µM

## CCCSc1nc(Cl)c2c(n1)N(Cc1ccco1)C(C(=O)N1CCN(C)CC1)N2 (configuration not stated)
MGC-803
  IC50: 53.8 µM
TE-1
  IC50: 35 µM
PC-3
  IC50: 11.3 µM
A549 [1]
  IC50: 13.6 µM

## CCCSc1nc(Cl)c2c(n1)N(Cc1ccccc1)C(C(=O)N1CCN(C)CC1)N2 (configuration not stated)
A549 [2]
  Activity: Active
A549 [3]
  Activity: Dose-dependent effect
A549 [4]
  Activity: Active
A549 [5]
  Activity: Active
A549 [6]
  Activity: Active
A549 [7]
  Activity: Active
A549 [8]
  Activity: Dose-dependent effect
MGC-803
  IC50: > 64 µM
TE-1
  IC50: 42.5 µM
[9]
  selectivity ratio: 108
A549 [10]
  Activity: Dose-dependent effect
PC-3
  IC50: 29.8 µM
A549 [11]
  Activity: Active
A549 [12]
  Activity: Active
A549 [1]
  IC50: 2.8 µM
A549 [13]
  Activity: Dose-dependent effect
A549 [14]
  Activity: 57%
A549 [15]
  Activity: Dose-dependent effect
GES1
  IC50: 303 µM
A549 [16]
  Activity: Active

## CCCSc1nc(Cl)c2c(n1)N(Cc1ccccc1)C(C(=O)NCCc1ccccc1)N2 (configuration not stated)
MGC-803
  IC50: 46.9 µM
TE-1
  IC50: 31.2 µM
PC-3
  IC50: 41.3 µM
A549 [1]
  IC50: 36.7 µM

## CCCSc1nc(Cl)c2c(n1)N(CCNC(=O)OC(C)(C)C)C(C(=O)N1CCN(C)CC1)N2 (configuration not stated)
MGC-803
  IC50: 59.3 µM
TE-1
  IC50: 51.8 µM
PC-3
  IC50: > 64 µM
A549 [1]
  IC50: 12.4 µM

## CCCSc1nc(Cl)c2c(n1)N(Cc1ccccc1)C(C(=O)N1CCOCC1)N2 (configuration not stated)
MGC-803
  IC50: 30.2 µM
TE-1
  IC50: 43.7 µM
PC-3
  IC50: 53.9 µM
A549 [1]
  IC50: > 64 µM

## CCCSc1nc(Cl)c2c(n1)N(Cc1cccs1)C(C(=O)N1CCN(C)CC1)N2 (configuration not stated)
MGC-803
  IC50: 62.3 µM
TE-1
  IC50: 39.4 µM
PC-3
  IC50: 5.02 µM
A549 [1]
  IC50: 6.42 µM

## CCCSc1nc(Cl)c2c(n1)N(Cc1ccccc1)C(C(=O)NCC(C)C)N2 (configuration not stated)
MGC-803
  IC50: 58.4 µM
TE-1
  IC50: 46.6 µM
PC-3
  IC50: > 64 µM
A549 [1]
  IC50: 48.2 µM

## CCCSc1nc(Cl)c2c(n1)N(Cc1ccccc1)C(C(=O)NCCCN1CCOCC1)N2 (configuration not stated)
MGC-803
  IC50: > 64 µM
TE-1
  IC50: 51.1 µM
PC-3
  IC50: 45.1 µM
A549 [1]
  IC50: 42.2 µM

## CCCSc1nc(Cl)c2c(n1)N(Cc1ccccc1)C(C(=O)Nc1ccccc1)N2 (configuration not stated)
MGC-803
  IC50: 58.4 µM
TE-1
  IC50: > 64 µM
PC-3
  IC50: > 64 µM
A549 [1]
  IC50: 50.2 µM

## CCCSc1nc(Cl)c2c(n1)N(Cc1ccccc1)C(C(=O)NCCNC(=O)OC(C)(C)C)N2 (configuration not stated)
MGC-803
  IC50: > 64 µM
TE-1
  IC50: > 64 µM
PC-3
  IC50: 29.7 µM
A549 [1]
  IC50: 53.2 µM

## CCCSc1nc(Cl)c2c(n1)N(CC1CCCCC1)C(C(=O)N1CCN(C)CC1)N2 (configuration not stated)
MGC-803
  IC50: > 64 µM
TE-1
  IC50: > 64 µM
PC-3
  IC50: 12.8 µM
A549 [1]
  IC50: 13.2 µM

## CCCSc1nc(Cl)c2c(n1)N(Cc1ccccc1)C(C(=O)N1CCN(Cc3ccccc3)CC1)N2 (configuration not stated)
MGC-803
  IC50: 51.2 µM
TE-1
  IC50: 48.2 µM
PC-3
  IC50: 57.3 µM
A549 [1]
  IC50: 14.4 µM

## CCCSc1nc(Cl)c2c(n1)N(Cc1ccccc1)C(C(=O)NCCCc1ccccc1)N2 (configuration not stated)
MGC-803
  IC50: 16.9 µM
TE-1
  IC50: 22.9 µM
PC-3
  IC50: 12.7 µM
A549 [1]
  IC50: 9.43 µM

## CCCSc1nc(Cl)c2c(n1)N(Cc1ccccc1)C(C(=O)OCC)N2 (configuration not stated)
MGC-803
  IC50: 18.5 µM
TE-1
  IC50: > 64 µM
PC-3
  IC50: 62.5 µM
A549 [1]
  IC50: 13.8 µM

## CCCSc1nc(Cl)c2c(n1)N(Cc1ccccc1)C(C(=O)O)N2 (configuration not stated)
MGC-803
  IC50: > 64 µM
TE-1
  IC50: > 64 µM
PC-3
  IC50: 49.2 µM
A549 [1]
  IC50: 10.7 µM
